US20100120769A1, “CYCLOHEXYL PIPERAZINYL METHANONE DERIVATIVES” (priority 2006, published 2010)

Biological target: T1, histamine 3 receptor (H3R) (Homo sapiens, UniProt Q9Y5N1)
T1 construct: expressed in transfected cells; host or cells: CHO cells (HR3-CHO)
Assay: Binding assay with 3H-(R)α-methylhistamine (competition binding, HR3-CHO membranes)
Conditions: membrane of the human HR3-CHO cell line, 3H(R)α-Methylhistamine 1 nM; Ki calculated from IC50 by Cheng-Prusoff
Protocol: Binding Assay with ^3H-(R)α-methylhistamine
Saturation binding experiments were performed using HR3-CHO membranes prepared as described in Takahashi, K, Tokita, S., Kotani, H. (2003) J. Pharmacol. Exp. Therapeutics 307, 213-218.
An appropriate amount of membrane (60 to 80 μg protein/well) was incubated with increasing concentrations of ^3H(R)α-Methylhistamine di-hydrochloride (0.10 to 10 nM). Non specific binding was determined using a 200 fold excess of cold (R)α-Methylhistamine dihydrobromide (500 nM final concentration). The incubation was carried out at room temperature (in deep-well plates shaking for three hours). The final volume in each well was 250 μl. The incubation was followed by rapid filtration on GF/B filters (pre-soaked with 100 μl of 0.5% PEI in Tris 50 mM shaking at 200 rpm for two hours). The filtration was made using a cell-harvester and the filter plates were then washed five times with ice cold washing buffer containing 0.5 M NaCl. After harvesting, the plates were dried at 55° C. for 60 min, then we added scintillation fluid (Microscint 40, 40 microl in each well) and the amount of radioactivity on the filter was determined in Packard top-counter after shaking the plates for two hours at 200 rpm at room temperature.
Binding Buffer: 50 mM Tris-HCl pH 7.4 and 5 mM MgCl2x6H2O pH 7.4. Washing Buffer: 50 mM Tris-HCl pH 7.4 and 5 mM MgCl2x6H2O and 0.5 M NaCl pH 7.4.
Indirect measurement of affinity of H3R inverse agonists: twelve increasing concentrations (ranging from 10 μM to 0.3 nM) of the selected compounds were always tested in competition binding experiments using membrane of the human HR3-CHO cell line. An appropriate amount of protein, e.g. approximately 500 cpm binding of RAMH at Kd, were incubated for 1 hour at room temperature in 250 μl final volume in 96-well plates in presence of ^3H(R)α-Methylhistamine (1 nM final concentration=Kd). […]
All compounds were tested at a single concentration in duplicates. […] Ki's were calculated from IC50 based on Cheng-Prusoff equation (Cheng, Y, Prusoff, W H (1973) Biochem Pharmacol 22, 3099-3108).

T1 sequence (Q9Y5N1 whole entry): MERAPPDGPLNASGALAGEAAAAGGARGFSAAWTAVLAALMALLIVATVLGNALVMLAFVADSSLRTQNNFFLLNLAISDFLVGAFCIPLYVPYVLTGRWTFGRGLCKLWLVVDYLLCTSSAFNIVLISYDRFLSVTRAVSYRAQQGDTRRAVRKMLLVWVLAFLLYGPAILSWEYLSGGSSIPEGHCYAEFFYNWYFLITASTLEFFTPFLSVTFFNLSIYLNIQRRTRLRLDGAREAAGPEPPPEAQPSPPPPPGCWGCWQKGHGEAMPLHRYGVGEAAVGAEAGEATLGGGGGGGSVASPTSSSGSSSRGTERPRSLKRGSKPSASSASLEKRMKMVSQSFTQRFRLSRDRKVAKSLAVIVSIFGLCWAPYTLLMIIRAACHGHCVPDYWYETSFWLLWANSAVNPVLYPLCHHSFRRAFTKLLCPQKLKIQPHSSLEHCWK

Compound | Ki
Cc1ccc(NC2CCC(C(=O)N3CCN(C(C)C)CC3)CC2)cc1 (stereo not drawn) [Example 1, (4-Isopropyl-piperazin-1-yl)-(4-p-tolylamino-cyclohexyl)-methanone] | 52.8 nM
CC(C)N1CCN(C(=O)[C@H]2CC[C@H](NC(=O)c3ccc(Cl)cc3Cl)CC2)CC1 [Example 13, 2,4-dichloro-N-[trans-4-(4-isopropyl-piperazine-1-carbonyl)-cyclohexyl]-benzamide] | 88.1 nM
CC(C)N1CCN(C(=O)[C@H]2CC[C@H](NC(=O)N(C)c3cccc(F)c3)CC2)CC1 [Example 32, 1-(3-fluoro-phenyl)-3-[trans-4-(4-isopropyl-piperazine-1-carbonyl)-cyclohexyl]-1-methyl-urea] | 38.4 nM
